Data as given in publication PMC2981508 (Science (New York, N.Y.), 2009).

Columns and labels:
[1] = molecular target: T1, progesterone receptor (Homo sapiens, UniProt P06401); assay: in vitro fluorescence polarization binding assay
T1 sequence (P06401 1-933): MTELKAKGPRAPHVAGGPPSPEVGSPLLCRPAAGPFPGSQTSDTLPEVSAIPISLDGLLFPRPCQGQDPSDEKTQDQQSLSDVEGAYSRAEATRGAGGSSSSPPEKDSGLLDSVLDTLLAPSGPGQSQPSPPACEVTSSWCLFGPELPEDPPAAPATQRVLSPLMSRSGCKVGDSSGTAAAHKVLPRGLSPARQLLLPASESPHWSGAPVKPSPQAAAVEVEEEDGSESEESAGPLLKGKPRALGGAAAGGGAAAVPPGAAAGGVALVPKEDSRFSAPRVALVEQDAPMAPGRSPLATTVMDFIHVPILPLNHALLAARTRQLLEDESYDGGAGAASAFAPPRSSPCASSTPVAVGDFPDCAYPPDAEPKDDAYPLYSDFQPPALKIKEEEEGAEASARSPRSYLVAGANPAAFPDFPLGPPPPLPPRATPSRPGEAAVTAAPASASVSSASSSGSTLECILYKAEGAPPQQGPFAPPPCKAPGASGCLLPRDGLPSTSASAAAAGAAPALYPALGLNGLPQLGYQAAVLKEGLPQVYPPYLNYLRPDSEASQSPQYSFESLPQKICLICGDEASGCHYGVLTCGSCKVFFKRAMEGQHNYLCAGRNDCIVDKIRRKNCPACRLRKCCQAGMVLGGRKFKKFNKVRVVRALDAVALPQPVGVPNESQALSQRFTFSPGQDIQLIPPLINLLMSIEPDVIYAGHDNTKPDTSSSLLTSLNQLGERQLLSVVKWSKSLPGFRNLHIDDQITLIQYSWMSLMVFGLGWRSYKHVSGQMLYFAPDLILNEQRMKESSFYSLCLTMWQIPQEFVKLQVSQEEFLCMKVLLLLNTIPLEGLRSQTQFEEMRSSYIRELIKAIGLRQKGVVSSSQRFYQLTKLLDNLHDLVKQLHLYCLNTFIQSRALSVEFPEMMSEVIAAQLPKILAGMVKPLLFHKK

[2] = test system: VCaP cells; assay: VCaP apoptosis; type: cell-based, human; settings: 10 μM, 1 or 3 days, PARP cleavage
[3] = test system: LNCaP/AR tumors; assay: LNCaP/AR xenograft model of CRPC in castrate male mice
[4] = test system: PSA and TMPRSS2 in parental LNCaP cells; assay: Antagonism of R1881 induction of PSA and TMPRSS2 in parental LNCaP cells; type: cell-based, human
[5] = molecular target: T2, glucocorticoid receptor (Homo sapiens, UniProt P04150); assay: in vitro fluorescence polarization binding assay
T2 sequence (P04150 1-777): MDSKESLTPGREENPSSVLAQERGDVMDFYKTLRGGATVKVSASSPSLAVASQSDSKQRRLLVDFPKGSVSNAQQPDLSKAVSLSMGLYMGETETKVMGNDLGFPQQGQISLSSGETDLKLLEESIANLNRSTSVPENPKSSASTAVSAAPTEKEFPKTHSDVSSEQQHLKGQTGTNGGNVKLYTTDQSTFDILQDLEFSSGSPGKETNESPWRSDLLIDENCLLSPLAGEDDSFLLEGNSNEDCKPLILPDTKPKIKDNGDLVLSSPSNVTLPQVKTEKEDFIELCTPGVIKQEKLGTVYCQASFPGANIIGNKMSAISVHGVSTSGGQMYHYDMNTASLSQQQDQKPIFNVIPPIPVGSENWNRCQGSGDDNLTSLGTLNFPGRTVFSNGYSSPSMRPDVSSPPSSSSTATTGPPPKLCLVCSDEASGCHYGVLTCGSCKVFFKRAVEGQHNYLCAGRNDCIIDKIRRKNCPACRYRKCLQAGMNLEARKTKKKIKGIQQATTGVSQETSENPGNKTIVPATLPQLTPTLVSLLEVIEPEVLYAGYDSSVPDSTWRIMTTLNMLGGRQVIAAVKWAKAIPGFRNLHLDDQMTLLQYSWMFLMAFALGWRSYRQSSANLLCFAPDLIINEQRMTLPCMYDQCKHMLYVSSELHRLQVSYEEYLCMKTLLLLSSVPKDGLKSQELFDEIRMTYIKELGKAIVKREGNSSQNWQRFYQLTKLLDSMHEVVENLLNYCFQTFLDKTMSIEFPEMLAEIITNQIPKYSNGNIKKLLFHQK

[6] = Pharmacokinetics of RD162 in mice
[7] = test system: AR recruitment to PSA enhancer and TMPRSS2 enhancer in LNCaP/AR cells; assay: Chromatin immunoprecipitation of AR in LNCaP/AR cells; type: cell-based, human
[8] = test system: DU145 human prostate cancer cells; assay: Growth of AR-negative DU145 cells in vitro; type: cell-based
[9] = test system: LNCaP/AR xenografts; assay: Ki-67 staining of LNCaP/AR xenografts; type: in vivo, mice; settings: after 5 days of treatment

SMILES: CNC(=O)c1ccc(N2C(=S)N(c3ccc(C#N)c(C(F)(F)F)c3)C(=O)C23CCC3)cc1F [RD162]
- binding to progesterone receptor [1]: little to no binding
- Apoptosis in VCaP cells [2]: induced apoptosis
- antitumor activity ([3]; 0.1 mg/kg): some slowing of tumor growth
- antitumor activity ([3]; 1 mg/kg): a few tumor regressions
- Tumors no longer palpable (of 12) ([3]; 10 mg/kg oral daily, 28 days): three tumors
- Tumors regressed (12 tumors per group) ([3]; 10 mg/kg oral daily, 28 days): all twelve tumors
- Tumors regressed by greater than 50 percent (of 12) ([3]; 10 mg/kg oral daily, 28 days): nine tumors
- Median time to tumor progression ([3]; continual 10 mg/kg oral daily treatment): 186 days
- Antagonism of induction of PSA and TMPRSS2 by R1881 [4]: antagonized induction
- binding to glucocorticoid receptor [5]: little to no binding
- bioavailable after oral delivery [6]: ~50%
- serum half-life [6]: about 30 hours
- Trough levels ([6]; 24 hours after a single 20 mg/kg oral dose): ~23 µM
- AR recruitment to PSA enhancer and TMPRSS2 enhancer [7]: Neither RD162 nor MDV3100 recruited AR
- Growth suppression in AR-negative DU145 cells [8]: not observed
- cellular proliferation by Ki-67 staining [9]: substantially reduced
